Source: publication PMC9841524, “Structure-Based Rational Design of Small α-Helical Peptides with Broad-Spectrum Activity against Multidrug-Resistant Pathogens” (Journal of Medicinal Chemistry, 2022)
Where no end group is shown, it is not given here.

Columns and labels:
[1] = system: human lung fibroblast cells (MRC-5), human embryonic kidney cells (HEK-293), human hepatic cells (HepaRG), HeKa cells; experiment: 24 h cell viability assay (MTS); assay type: cell-based; details: triplicate
Protocol: The in vitro cytotoxicity of 8a and 8b was evaluated using human lung fibroblast cells (MRC-5), human embryonic kidney cells (HEK-293), human hepatic cells (HepaRG), and human epidermal keratinocytes (HEKa). Cells were seeded at 10,000 per well in 0.1 mL of media in 96-well plates 24 h prior to the experiment. Lung and kidney cells were seeded in DMEM medium containing FBS (10%). Liver cells were seeded in William’s E medium with the GlutaMAX supplement. Epidermal keratinocytes were seeded in a Dermal Cell Basal medium supplemented with a keratinocyte growth kit. The peptides were added to each well in triplicates at a variable concentration of 10–250 μg/mL and incubated for 24h at 37 °C in a humidified atmosphere of 5% CO2. After the incubation period, the MTS solution (20 μL) was added to each well. Then, the cells were incubated for 2 h at 37 °C, and the cell viability was determined by measuring the absorbance at 490 nm using a SpectraMaxM2 microplate spectrophotometer. The percentage of cell survival was calculated as [(OD value of cells treated with the test mixture of compounds) – (OD value of culture medium)]/[(OD value of control cells) – (OD value of culture medium)] × 100%.

MRSA (ATCC BAA-1556) = experiment: Flow cytometric analysis of PI-stained cells; assay type: cell-based, methicillin-resistant S. aureus; details: flow cytometry; for PI fluorescence of MRSA cells at MIC: 1 h treatment, 10^7 CFU/mL
Protocol: The flow cytometric analysis was performed by using MRSA (ATCC BAA-1556) and E. coli (ATCC BAA-2452) cultures grown to the mid log phase in Mueller Hinton broth (HIMEDIA). Before treatment, bacterial cells were washed thrice with buffer (10 mM Tris, pH 7.4) and resuspended in the same buffer to obtain 10^7 CFU/mL bacterial suspensions. Test peptides (8a and 8b) and the standard antibiotics (daptomycin and polymyxin B) at MIC and 4 × MIC were incubated with bacterial suspension for 1 h. Following the treatment with test peptides, the cells were pelleted by centrifugation at 3000g for 15 min in a microcentrifuge. The supernatant was decanted, and the cells were washed with PBS several times and then incubated with PI ([…]) in the dark for 15 min at 37 °C. FACS analysis of the stained bacterial cells was performed using a FACscan flow cytometer (BD Accuri C6, BD Biosciences, California, USA), and data were analyzed by using Cell Quest software.

[2] = system: human red blood cells (hRBCs); experiment: Hemolytic assay; assay type: cell-based; details: for decrease in the hemolytic activity on replacing Arg with Lys: 7b vs 7a, 8b vs 8a, HC50, hRBC; for HC50 (concentration at which 50% hemolysis was observed): 2 h, 37 °C
In short: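 Percent hemolysis uses PBS as 0% and 1% Triton X-100 as 100% references, from supernatant absorbance at 567 nm. Red cells (4% in PBS, equal volume) exposed 2 h at 37 °C without agitation to 2-fold serially diluted peptide.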

[3] = CD spectroscopy, helicity; assay type: physicochemical; set-up: key to Δ[θ]222 induced by TFE / Δ[θ]222 induced by Liposomes: mean residue molar ellipticity, mdeg cm2/(dmol × res); details: for [θ]222 mean residue molar ellipticity, TFE / [θ]222 mean residue molar ellipticity, Liposomes / [θ]222 mean residue molar ellipticity, PBS: CD at 222 nm, 25 °C; for [θ]222 mean residue molar ellipticity, TFE: aqueous buffer containing 50% TFE; for [θ]222 mean residue molar ellipticity, Liposomes / Δ[θ]222 induced by Liposomes: bacterial membrane mimicking liposomes; for [θ]222 mean residue molar ellipticity, Liposomes: peptide:lipid molar ratio 1:1.05; for [θ]222 mean residue molar ellipticity, PBS: phosphate buffer saline pH 7.0; for Δ[θ]222 induced by TFE / Δ[θ]222 induced by Liposomes: difference to PBS; for Δ[θ]222 induced by TFE: 50% TFE; for % of helicity induced by TFE: increase in molar ellipticity at 222 nm in the presence of 50% TFE; for % of helicity induced by Liposomes: increase in molar ellipticity at 222 nm in the presence of liposomes;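 on % of helicity induced by Liposomes: share of the total helicity with liposomes gained over the same peptide in PBS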;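 on % of helicity induced by TFE: share of the total helicity in TFE gained over the same peptide in PBS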
In short: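 Ellipticity at 222 nm, converted to mean residue molar ellipticity, was measured at 25 °C (three-scan average, 190–260 nm, 1 mm path) in phosphate buffer pH 7.2, 50% TFE, or liposomes at 75 μM lipid, after blank subtraction. Induced helicity is the percent rise at 222 nm versus buffer.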

[4] = hRBC suspension 4% in PBS, hemoglobin release at 567 nm, 1% Triton X-100 = 100%
[5] = value in parentheses (μM), hRBC 4% in PBS, 567 nm
[6] = all tested cells (MRC-5, HEK-293, HepaRG, HeKa), MTS

CCCCCCCCCC(=O)N[C@@H](Cc1c[nH]c2ccccc12)C(=O)N[C@H](CC(N)=O)C(=O)N[C@@H](CC(=O)O)C(=O)N[C@@H]1C(=O)NCC(=O)N[C@@H](CCCN)C(=O)N[C@@H](CC(=O)O)C(=O)N[C@H](C)C(=O)N[C@@H](CC(=O)O)C(=O)NCC(=O)N[C@H](CO)C(=O)N[C@@H]([C@H](C)CC(=O)O)C(=O)N[C@@H](CC(=O)c2ccccc2N)C(=O)O[C@@H]1C [daptomycin, reference compound]
cytotoxicity against kidney and liver cells ([1]; HEK293 and HPRGC10 (HepaRG), up to 250 μg/mL): negligible cytotoxicity | PI-stained population of MRSA cells (MRSA (ATCC BAA-1556); MIC and 4 × MIC, 1 h): did not significantly increase

KWIKKWIKWWKK-NH2 [7b]
decrease in the hemolytic activity on replacing Arg with Lys [2]: approximately 5 fold | HC50 (concentration at which 50% hemolysis was observed) [2, 4]: 460 µg/mL | HC50 (concentration at which 50% hemolysis was observed) [2, 5]: 261.77 µM | [θ]222 mean residue molar ellipticity, TFE [3]: -10800 mdeg cm2/(dmol × res) | [θ]222 mean residue molar ellipticity, Liposomes [3]: -12345 mdeg cm2/(dmol × res) | [θ]222 mean residue molar ellipticity, PBS [3]: -3016 mdeg cm2/(dmol × res) | Δ[θ]222 induced by TFE [3]: -7784 | Δ[θ]222 induced by Liposomes [3]: -9328 | % of helicity induced by TFE [3]: 72.06% | % of helicity induced by Liposomes [3]: 75.56%

KWLKKWLKWWKK-NH2 [8b]
decrease in the hemolytic activity on replacing Arg with Lys [2]: approximately 5 fold | HC50 ([2]; abstract, hRBC): 280 µg/mL | HC50 (concentration at which 50% hemolysis was observed) [2, 5]: 159.34 µM | cell viability at 250 μg/mL, except for skin cells ([1]; MRC-5, HEK-293, HepaRG, MTS): above 60% | cell viability at 50 μg/mL [1, 6]: above 75% | PI fluorescence of MRSA cells at MIC (MRSA (ATCC BAA-1556)): 42.1% | [θ]222 mean residue molar ellipticity, TFE [3]: -15887 mdeg cm2/(dmol × res) | [θ]222 mean residue molar ellipticity, Liposomes [3]: -19313 mdeg cm2/(dmol × res) | [θ]222 mean residue molar ellipticity, PBS [3]: -6387 mdeg cm2/(dmol × res) | Δ[θ]222 induced by TFE [3]: -9499 | Δ[θ]222 induced by Liposomes [3]: -12926 | % of helicity induced by TFE [3]: 59.79% | % of helicity induced by Liposomes [3]: 66.92%

RWIRRWIRWWRR-NH2 [7a]
HC50 (concentration at which 50% hemolysis was observed) [2, 4]: 90 µg/mL | HC50 (concentration at which 50% hemolysis was observed) [2, 5]: 46.74 µM | [θ]222 mean residue molar ellipticity, TFE [3]: -8205 mdeg cm2/(dmol × res) | [θ]222 mean residue molar ellipticity, Liposomes [3]: -11307 mdeg cm2/(dmol × res) | [θ]222 mean residue molar ellipticity, PBS [3]: -2471 mdeg cm2/(dmol × res) | Δ[θ]222 induced by TFE [3]: -5734 | Δ[θ]222 induced by Liposomes [3]: -8836 | % of helicity induced by TFE [3]: 69.88% | % of helicity induced by Liposomes [3]: 78.14%

RWLRRWLRWWRR-NH2 [8a]
HC50 (concentration at which 50% hemolysis was observed) [2, 4]: 45 µg/mL | HC50 (concentration at which 50% hemolysis was observed) [2, 5]: 23.37 µM | cell viability at 50 μg/mL [1, 6]: below 60% | cell viability at 250 μg/mL [1, 6]: below 30% | PI fluorescence of MRSA cells at MIC (MRSA (ATCC BAA-1556)): 34.2% | [θ]222 mean residue molar ellipticity, TFE [3]: -10811 mdeg cm2/(dmol × res) | [θ]222 mean residue molar ellipticity, Liposomes [3]: -15616 mdeg cm2/(dmol × res) | [θ]222 mean residue molar ellipticity, PBS [3]: -4794 mdeg cm2/(dmol × res) | Δ[θ]222 induced by TFE [3]: -6017 | Δ[θ]222 induced by Liposomes [3]: -10822 | % of helicity induced by TFE [3]: 55.65% | % of helicity induced by Liposomes [3]: 69.30%
